Reference: PMC12508063, “Chloroindazole based estrogen receptor β ligands with favorable pharmacokinetics promote functional remyelination and visual recovery” (Scientific Reports, 2025)
“And” between values parts separate entries of the source, which are not always exact repeats. Equal values may be shown once. Values belong to the molecule of their own block, whether it stands above or below them.

Columns and labels:
ERα = biological target: T1, ERα (Homo sapiens, UniProt P03372); assay: ER reporter gene assay in HEK 293 T cells (ER-luciferase reporter); assay type: cell-based; details: for Reporter gene assay raw data, ERa: 4 replicate columns
T1 construct: expressed in transfected cells; host or cells: HEK 293 T cells
T1 sequence (P03372 1-595): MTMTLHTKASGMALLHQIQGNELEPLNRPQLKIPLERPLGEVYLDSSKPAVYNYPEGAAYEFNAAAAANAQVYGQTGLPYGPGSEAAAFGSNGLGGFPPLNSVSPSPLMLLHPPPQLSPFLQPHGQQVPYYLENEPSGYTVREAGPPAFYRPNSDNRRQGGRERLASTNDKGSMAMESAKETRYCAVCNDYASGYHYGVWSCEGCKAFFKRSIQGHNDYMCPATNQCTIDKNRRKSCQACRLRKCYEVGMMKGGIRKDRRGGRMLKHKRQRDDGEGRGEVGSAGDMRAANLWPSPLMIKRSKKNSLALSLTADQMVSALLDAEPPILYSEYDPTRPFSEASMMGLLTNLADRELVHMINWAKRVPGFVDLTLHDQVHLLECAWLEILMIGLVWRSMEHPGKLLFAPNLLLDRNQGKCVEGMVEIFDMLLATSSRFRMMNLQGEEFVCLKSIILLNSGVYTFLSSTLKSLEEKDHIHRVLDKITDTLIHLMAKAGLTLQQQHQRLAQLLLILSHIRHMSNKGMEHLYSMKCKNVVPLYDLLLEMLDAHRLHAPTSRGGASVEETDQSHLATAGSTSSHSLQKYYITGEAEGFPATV

ERβ = biological target: T2, ERβ (Homo sapiens, UniProt Q92731); assay: as above; assay type: cell-based; details: for Reporter gene assay raw data, ERb: ERb data block (head r19), 4 replicate columns; for ERb reporter gene assay raw data (response): four replicate columns per compound
T2 construct: expressed in transfected cells; host or cells: HEK 293 T cells
T2 sequence (Q92731 whole entry, species assumed): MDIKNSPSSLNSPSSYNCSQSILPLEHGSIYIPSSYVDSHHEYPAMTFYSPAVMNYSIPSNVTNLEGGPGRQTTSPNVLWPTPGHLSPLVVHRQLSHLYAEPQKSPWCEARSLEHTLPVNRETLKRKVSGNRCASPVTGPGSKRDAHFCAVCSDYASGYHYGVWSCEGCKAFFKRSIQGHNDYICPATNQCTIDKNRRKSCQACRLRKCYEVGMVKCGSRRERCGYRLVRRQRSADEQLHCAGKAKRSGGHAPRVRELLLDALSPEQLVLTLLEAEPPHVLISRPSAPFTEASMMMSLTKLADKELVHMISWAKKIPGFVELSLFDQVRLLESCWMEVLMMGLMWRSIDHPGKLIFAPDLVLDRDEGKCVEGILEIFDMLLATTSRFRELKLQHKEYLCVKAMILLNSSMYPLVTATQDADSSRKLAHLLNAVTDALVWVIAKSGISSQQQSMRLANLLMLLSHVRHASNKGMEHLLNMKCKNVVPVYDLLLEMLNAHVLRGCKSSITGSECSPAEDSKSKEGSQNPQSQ

Reporter gene assay raw data, ERa (ERα; Log M -9.81816, first ERa data block (head r2)): 8.154 and 4.486 and 4.8306 and 4.983 | Reporter gene assay raw data, ERa (ERα; Log M -9.81816, second ERa data block (head r34)): 6.6406 and 6.967 and 4.962 and 7.591 | Reporter gene assay raw data, ERa (ERα; Log M -10.2941, first ERa data block (head r2)): 3.132 and 9.724 and 4.561 and 11.8118 | Reporter gene assay raw data, ERa (ERα; Log M -10.2941, second ERa data block (head r34)): 3.775 and 13.8366 and 4.292 and 12.8533 | Reporter gene assay raw data, ERa (ERα; Log M -10.7721, first ERa data block (head r2)): 1.451 and 1.5656 and -0.4526 and 1.85 | Reporter gene assay raw data, ERa (ERα; Log M -10.7721, second ERa data block (head r34)): -0.2019 and 1.235 and 0.142 and 1.333 | Reporter gene assay raw data, ERa (ERα; Log M -11.248, second ERa data block (head r34)): -0.9111 and -0.3248 and 1.487 and 1.068 | ERa reporter gene assay raw data (response) (ERα; Log M -13, four replicate columns per compound): 0.8253 and -0.8253 and 1.478 and -1.478
Compound: Oc1ccc([C@@H]2Oc3ccc(O)cc3[C@@H]3CCC[C@@H]32)cc1 [LY500307]
Reporter gene assay raw data, ERa (ERα; Log M -6, first ERa data block (head r2)): 95.3498 and 76.8258 and 78.8468 and 79.4968 | Reporter gene assay raw data, ERa (ERα; Log M -6, second ERa data block (head r34)): 84.2897 and 88.4184 and 89.8518 and 82.7548 | Reporter gene assay raw data, ERa (ERα; Log M -6.47756, first ERa data block (head r2)): 81.0788 and 76.9627 and 81.3158 and 77.2241 | Reporter gene assay raw data, ERa (ERα; Log M -6.47756, second ERa data block (head r34)): 83.7373 and 79.8906 and 79.6354 and 82.4556 | Reporter gene assay raw data, ERa (ERα; Log M -6.95468, first ERa data block (head r2)): 64.5612 and 69.8569 and 66.3267 and 71.602 | Reporter gene assay raw data, ERa (ERα; Log M -6.95468, second ERa data block (head r34)): 71.7534 and 71.241 and 72.7885 and 70.2307 | Reporter gene assay raw data, ERa (ERα; Log M -7.4318, first ERa data block (head r2)): 51.8548 and 63.5801 and 59.7283 and 55.8203 | Reporter gene assay raw data, ERa (ERα; Log M -7.4318, second ERa data block (head r34)): 63.921 and 68.3671 and 59.0742 and 56.656 | Reporter gene assay raw data, ERa (ERα; Log M -7.91009, first ERa data block (head r2)): 45.1889 and 57.478 and 50.9227 and 51.1094 | Reporter gene assay raw data, ERa (ERα; Log M -7.91009, second ERa data block (head r34)): 50.9317 and 49.5895 and 46.336 and 52.0394 | Reporter gene assay raw data, ERa (ERα; Log M -8.3851, first ERa data block (head r2)): 49.7552 and 47.0158 and 40.3598 and 42.6852 | Reporter gene assay raw data, ERa (ERα; Log M -8.3851, second ERa data block (head r34)): 51.0127 and 45.6306 and 44.3415 and 46.4772 | Reporter gene assay raw data, ERa (ERα; Log M -8.86328, first ERa data block (head r2)): 31.993 and 35.5083 and 37.6374 and 35.7027 | Reporter gene assay raw data, ERa (ERα; Log M -8.86328, second ERa data block (head r34)): 42.4323 and 38.564 and 35.9099 and 35.545 | Reporter gene assay raw data, ERa (ERα; Log M -9.34008, first ERa data block (head r2)): 17.3101 and 15.2621 and 18.8474 and 18.6811 | Reporter gene assay raw data, ERa (ERα; Log M -9.34008, second ERa data block (head r34)): 21.5928 and 20.6886 and 16.8312 and 20.0407 | Reporter gene assay raw data, ERa (ERα; Log M -11.248, first ERa data block (head r2)): -0.6879 and -0.2253 and -0.584 and 0.4876

Reporter gene assay raw data, ERb (ERβ; Log M -7.4318): 88.9611 and 107.81 and 89.4793 | ERb reporter gene assay raw data (response) (ERβ; Log M -9.34008): 83.69 and 95.3591 and 88.894 and 92.378 | ERb reporter gene assay raw data (response) (ERβ; Log M -10.7721): 27.7709 and 32.5606 and 30.8658 | Reporter gene assay raw data, ERb (ERβ; Log M -11.248): 7.1742 and 11.1236 and 8.004 and 9.347 | ERb reporter gene assay raw data (response) (ERβ; Log M -11.248): 5.759 and 5.232 and 4.796 and 6.634
Compound: C[C@]12CC[C@@H]3c4ccc(O)cc4CC[C@H]3[C@@H]1CC[C@@H]2O [Compound E2, estradiol]
Reporter gene assay raw data, ERb (ERβ; Log M -6): 88.8232 and 101.64 and 110.514 and 90.7218 | ERb reporter gene assay raw data (response) (ERβ; Log M -6): 84.0609 and 88.7479 and 111.697 and 94.4619 | Reporter gene assay raw data, ERb (ERβ; Log M -6.47756): 97.0869 and 99.8524 and 105.457 and 96.3817 | ERb reporter gene assay raw data (response) (ERβ; Log M -6.47756): 91.3063 and 103.043 and 96.9565 and 108.694 | Reporter gene assay raw data, ERb (ERβ; Log M -6.95468): 101.657 and 108.929 and 91.071 and 98.3432 | ERb reporter gene assay raw data (response) (ERβ; Log M -6.95468): 85.5094 and 93.8773 and 82.9145 and 86.4119 | ERb reporter gene assay raw data (response) (ERβ; Log M -7.4318): 92.1619 and 99.8727 and 93.6976 and 98.6683 | Reporter gene assay raw data, ERb (ERβ; Log M -7.91009): 87.7241 and 103.45 and 96.1824 and 92.6694 | ERb reporter gene assay raw data (response) (ERβ; Log M -7.91009): 89.9017 and 89.3359 and 90.9076 and 106.617 | Reporter gene assay raw data, ERb (ERβ; Log M -8.3851): 90.4631 and 100.397 and 90.4263 and 91.0339 | ERb reporter gene assay raw data (response) (ERβ; Log M -8.3851): 91.9536 and 86.2134 and 78.7089 and 97.5579 | Reporter gene assay raw data, ERb (ERβ; Log M -8.86328): 79.9036 and 104.483 and 99.1546 and 93.2724 | ERb reporter gene assay raw data (response) (ERβ; Log M -8.86328): 95.1963 and 89.1365 and 87.1229 and 89.1607 | Reporter gene assay raw data, ERb (ERβ; Log M -9.34008): 95.3149 and 101.905 and 91.5426 and 83.1517 | Reporter gene assay raw data, ERb (ERβ; Log M -9.81816): 104.147 and 95.8332 and 93.5201 and 92.5995 | ERb reporter gene assay raw data (response) (ERβ; Log M -9.81816): 83.8842 and 77.8861 and 83.3564 and 89.1956 | Reporter gene assay raw data, ERb (ERβ; Log M -10.2941): 77.6845 and 76.952 and 81.0679 and 77.2912 | ERb reporter gene assay raw data (response) (ERβ; Log M -10.2941): 80.3017 and 74.375 and 74.4575 and 76.8278 | Reporter gene assay raw data, ERb (ERβ; Log M -10.7721): 31.1486 and 35.6178 and 35.7979 and 36.2215 | ERb reporter gene assay raw data (response) (ERβ; Log M -13): -0.5566 and 0.8119 and -0.8119 and 0.5566
